ChEMBL document CHEMBL4043136, “Chiral-pool synthesis of 1,2,4-trisubstituted 1,4-diazepanes as novel σ1 receptor ligands” (Bioorg Med Chem, 2017)
Calls of active or inactive are those of the source. No cut-off for these calls is given here.

Experiments:
[1] = molecular target: Sigma non-opioid intracellular receptor 1 (Cavia porcellus, UniProt Q60492); assay: Displacement of [3H]-pentazocine from sigma1 receptor in guinea pig brain membranes after 120 mins by liquid scintillation counting; assay type: cell membranes, Membrane
[2] = molecular target: C-8 sterol isomerase ERG2 (Saccharomyces cerevisiae S288c) (UniProt P32352); assay: Inhibition of yeast sterol-delta8/7-isomerase assessed as accumulation of cholesta-7-en-3beta-ol at 1 uM
[3] = molecular target: C-8 sterol isomerase ERG2 (Saccharomyces cerevisiae S288c) (UniProt P32352); assay: Inhibition of yeast sterol-delta8/7-isomerase assessed as accumulation of cholesta-8-en-3beta-ol at 1 uM
[4] = molecular target: T1, Sigma intracellular receptor 2 (Rattus norvegicus, UniProt Q5U3Y7); assay: Displacement of [3H]-DTG from sigma2 receptor in rat liver membranes after 120 mins by liquid scintillation counting; assay type: cell membranes, Membrane
T1 sequence (Q5U3Y7 whole entry): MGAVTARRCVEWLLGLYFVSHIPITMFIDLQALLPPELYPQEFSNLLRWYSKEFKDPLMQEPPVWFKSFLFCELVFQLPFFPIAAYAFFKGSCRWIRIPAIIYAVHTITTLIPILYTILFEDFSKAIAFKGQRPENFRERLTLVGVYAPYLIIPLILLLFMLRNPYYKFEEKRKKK

[5] = molecular target: C-8 sterol isomerase ERG2 (Saccharomyces cerevisiae S288c) (UniProt P32352); assay: Inhibition of yeast sterol-delta8/7-isomerase assessed as accumulation of cholesta-5,7-dien-3beta-ol at 1 uM
[6] = Displacement of [3H]-(+)-MK 801 from PCP binding site of NMDA receptor in pig brain cortex membranes after 120 mins by liquid scintillation spectrometry; assay type: cell membranes, Sus scrofa
[7] = molecular target: C-8 sterol isomerase ERG2 (Saccharomyces cerevisiae S288c) (UniProt P32352); assay: Inhibition of yeast sterol-delta8/7-isomerase assessed as accumulation of cholesta-8,14-dien-3beta-ol at 1 uM
[8] = molecular target: C-8 sterol isomerase ERG2 (Saccharomyces cerevisiae S288c) (UniProt P32352); assay: Inhibition of yeast sterol-delta8/7-isomerase assessed as accumulation of cholesta-8,14-dien-3beta-ol at 50 uM
[9] = molecular target: C-8 sterol isomerase ERG2 (Saccharomyces cerevisiae S288c) (UniProt P32352); assay: Inhibition of yeast sterol-delta8/7-isomerase assessed as accumulation of cholesta-5,7-dien-3beta-ol at 50 uM
[10] = molecular target: C-8 sterol isomerase ERG2 (Saccharomyces cerevisiae S288c) (UniProt P32352); assay: Inhibition of yeast sterol-delta8/7-isomerase assessed as accumulation of cholesta-8-en-3beta-ol at 50 uM
[11] = molecular target: C-8 sterol isomerase ERG2 (Saccharomyces cerevisiae S288c) (UniProt P32352); assay: Inhibition of yeast sterol-delta8/7-isomerase assessed as accumulation of cholesta-7-en-3beta-ol at 50 uM

Chain of Sigma non-opioid intracellular receptor 1 (Q60492 whole entry): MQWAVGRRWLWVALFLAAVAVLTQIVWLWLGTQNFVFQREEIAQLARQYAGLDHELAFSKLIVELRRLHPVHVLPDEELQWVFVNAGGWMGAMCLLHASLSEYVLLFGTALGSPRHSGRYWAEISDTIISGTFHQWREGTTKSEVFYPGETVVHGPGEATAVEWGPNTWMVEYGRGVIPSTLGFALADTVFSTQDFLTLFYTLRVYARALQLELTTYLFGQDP
Chain of C-8 sterol isomerase ERG2 (Saccharomyces cerevisiae S288c) (P32352 whole entry, looked up): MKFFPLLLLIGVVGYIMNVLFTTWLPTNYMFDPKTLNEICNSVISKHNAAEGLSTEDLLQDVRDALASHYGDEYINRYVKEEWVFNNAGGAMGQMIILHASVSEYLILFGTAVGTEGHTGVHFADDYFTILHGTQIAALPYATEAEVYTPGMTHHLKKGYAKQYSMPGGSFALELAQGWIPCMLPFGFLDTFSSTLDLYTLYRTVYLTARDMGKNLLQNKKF

Compound | Ki [1] | inhibition [2] | inhibition [3] | Ki [4] | inhibition [5] | IC50 [6] | inhibition [7] | inhibition [8] | inhibition [9] | inhibition [10] | inhibition [11]
c1ccc(CCCN2CCCN(Cc3ccccc3)[C@@H](Cc3ccccc3)C2)cc1 | 73 nM | Active | Active | 193 nM | Active | > 1000 nM | Active |  |  |  | 
C[C@@H]1CN(CCCCc2ccccc2)CCCN1Cc1ccccc1 | 0.83 nM | Active | Active | 71 nM | Active | > 1000 nM | inactive | inactive | Active | inactive | Active
CCCCN1CCCN(CCCC)[C@H](Cc2ccccc2)C1 | 21 nM |  |  | > 1000 nM |  | > 1000 nM |  |  |  |  | 
c1ccc(CCCN2CCCN(Cc3ccccc3)[C@H](Cc3ccccc3)C2)cc1 | 25 nM | Active | Active | 300 nM | inactive | > 1000 nM | Active | Active | Active | Active | Active
c1ccc(CCCCN2CCCN(Cc3ccccc3)[C@H](Cc3ccccc3)C2)cc1 | 28 nM | Active | inactive | 423 nM | Active | > 1000 nM | inactive | Active | Active | Active | Active
CCCCN1CCCN(CCCCc2ccccc2)[C@H](Cc2ccccc2)C1 | 13 nM |  |  | 942 nM |  | > 1000 nM |  |  |  |  | 
COc1ccc(CN2CCCN(Cc3ccccc3)[C@@H](Cc3ccccc3)C2)cc1 | 29 nM | inactive | Active | > 1000 nM | Active | > 1000 nM | Active | Active | Active | inactive | Active
C[C@H]1CN(CCCCc2ccccc2)CCCN1Cc1ccccc1 | 0.77 nM | Active | Active | 8.6 nM | Active | > 1000 nM | inactive |  |  |  | 
OC(CN1CCCN(Cc2ccccc2)[C@@H](Cc2ccccc2)C1)c1ccccc1 (some centres not stated) | 234 nM |  |  | 903 nM |  | > 1000 nM |  |  |  |  | 

Now from value to molecule:

Ki [1] | inhibition [2] | inhibition [3] | Ki [4] | inhibition [5] | IC50 [6] | inhibition [7] | inhibition [8] | inhibition [9] | inhibition [10] | inhibition [11] | Compound
18 nM |  |  | 278 nM |  | > 1000 nM |  |  |  |  |  | CCCCN1CCCN(CCCC)[C@@H](Cc2ccccc2)C1
20 nM | Active | Active | > 1000 nM | Active | > 1000 nM | Active | inactive | Active | Active | Active | COc1ccc(CN2CCCN(Cc3ccccc3)[C@@H](C(C)C)C2)cc1
280 nM | Active | inactive | > 1000 nM | Active | > 1000 nM | Active | Active | Active | Active | Active | CN1CCCN(Cc2ccccc2)[C@H](Cc2ccccc2)C1
6 nM | Active | inactive | > 1000 nM | Active | > 1000 nM | Active | inactive | Active | Active | Active | CC(C)[C@H]1CN(CC2CCCCC2)CCCN1Cc1ccccc1
0.51 nM |  |  | 431 nM |  | > 1000 nM |  |  |  |  |  | COc1ccc(CN2CCCN(Cc3ccccc3)[C@H](C)C2)cc1
1.1 nM |  |  | 19 nM |  | > 1000 nM |  |  |  |  |  | COc1ccc(CN2CCCN(CC3CCCCC3)C[C@@H]2C)cc1
120 nM |  |  | > 1000 nM |  | > 1000 nM |  |  |  |  |  | CCCCN1CCCN(C)[C@@H](Cc2ccccc2)C1
